Results taken from PMC12689647, “Evaluation of bromadiolone combined with ciprofloxacin, vitamin D, aspirin, and cinnamon as an apoptosis-mediated rodenticide strategy” (Scientific Reports, 2025).

Test system: cleaved caspase-3
Experiment: Western blot of liver tissue, cleaved caspase-3
Assay type: in vivo, Rattus norvegicus
Conditions: Western blot normalized to β-actin, oral, 21 days
Description: Adult male rats (n = 7 × 9 = 63), weighing 150–200 g, were randomized and divided into seven groups. Group I served as the control. Group II received the vehicle control (0.1 ml/100 g ethanol). Group III was treated with bromadiolone (B) at ½ LD₅₀ (0.8 mg/kg)[28]. Group IV received bromadiolone (0.8 mg/kg) + ciprofloxacin (Anti.20 mg/kg)[29]. Group V received bromadiolone (0.8 mg/kg) + ciprofloxacin (20 mg/kg) + vitamin D (Vit. D 35 mg/kg)[30]. Group VI received bromadiolone (0.8 mg/kg) + ciprofloxacin (20 mg/kg) + vitamin D (35 mg/kg) + cinnamon (Cin. 2 g/kg)[31]. Group VII received bromadiolone (0.8 mg/kg) + ciprofloxacin (20 mg/kg) + vitamin D (35 mg/kg) + aspirin (A. 150 mg/kg)[32]. All doses were administered orally to wild rats over 21 days. The chemical we used for the euthanizing process: rats were narcotized by Ketamine + xylazine injection (IP) and then sacrificed by slaughtering.
For the immunodetection and quantification of proteins such as p21 and cleaved caspase-3, markers of apoptotic cell death under various treatments, liver tissue was homogenized using RIPA lysis buffer. The samples were chopped and briefly sonicated on ice, and protein concentration was measured. Proteins (20 µg) were separated using SDS-PAGE and transferred to a nitrocellulose membrane. […] The optical densities of the bands were quantified and normalized to β-actin (1:5000) using ImageJ software.

With `O=c1oc2ccccc2c(O)c1C(CC(O)c1ccc(-c2ccc(Br)cc2)cc1)c1ccccc1` (stereo not shown) [Bromadiolone] the “increase in cleaved caspase-3 level compared to the control” value was 75.92%.
